ChEMBL document CHEMBL2074550, “Carbamazepine is not a substrate for P-glycoprotein” (Br J Clin Pharmacol, 2001)

What was measured:
[1] = target: T1, ATP-dependent translocase ABCB1 (Homo sapiens, UniProt P08183); experiment: TP_TRANSPORTER: inhibition of Rhodamine 123 efflux (R123: 1.5 ug/mL, Carbamazepine: 100 uM) in human lymphocytes; format: functional, cell-based; conditions: lymphocyte
[2] = target: T1, ATP-dependent translocase ABCB1; experiment: TP_TRANSPORTER: transepithelial transport (basal to apical) in Caco-2 cells; format: functional, cell-based
[3] = target: P-glycoprotein 1 and 3 (MDR1a/MDR1b) (Mus musculus, UniProt P21447+P06795); experiment: TP_TRANSPORTER: no change in brain concentration in mdr1a/1b(-/-) mouse; format: functional, organism-based; conditions: in vivo

T1 sequence (P08183 whole entry): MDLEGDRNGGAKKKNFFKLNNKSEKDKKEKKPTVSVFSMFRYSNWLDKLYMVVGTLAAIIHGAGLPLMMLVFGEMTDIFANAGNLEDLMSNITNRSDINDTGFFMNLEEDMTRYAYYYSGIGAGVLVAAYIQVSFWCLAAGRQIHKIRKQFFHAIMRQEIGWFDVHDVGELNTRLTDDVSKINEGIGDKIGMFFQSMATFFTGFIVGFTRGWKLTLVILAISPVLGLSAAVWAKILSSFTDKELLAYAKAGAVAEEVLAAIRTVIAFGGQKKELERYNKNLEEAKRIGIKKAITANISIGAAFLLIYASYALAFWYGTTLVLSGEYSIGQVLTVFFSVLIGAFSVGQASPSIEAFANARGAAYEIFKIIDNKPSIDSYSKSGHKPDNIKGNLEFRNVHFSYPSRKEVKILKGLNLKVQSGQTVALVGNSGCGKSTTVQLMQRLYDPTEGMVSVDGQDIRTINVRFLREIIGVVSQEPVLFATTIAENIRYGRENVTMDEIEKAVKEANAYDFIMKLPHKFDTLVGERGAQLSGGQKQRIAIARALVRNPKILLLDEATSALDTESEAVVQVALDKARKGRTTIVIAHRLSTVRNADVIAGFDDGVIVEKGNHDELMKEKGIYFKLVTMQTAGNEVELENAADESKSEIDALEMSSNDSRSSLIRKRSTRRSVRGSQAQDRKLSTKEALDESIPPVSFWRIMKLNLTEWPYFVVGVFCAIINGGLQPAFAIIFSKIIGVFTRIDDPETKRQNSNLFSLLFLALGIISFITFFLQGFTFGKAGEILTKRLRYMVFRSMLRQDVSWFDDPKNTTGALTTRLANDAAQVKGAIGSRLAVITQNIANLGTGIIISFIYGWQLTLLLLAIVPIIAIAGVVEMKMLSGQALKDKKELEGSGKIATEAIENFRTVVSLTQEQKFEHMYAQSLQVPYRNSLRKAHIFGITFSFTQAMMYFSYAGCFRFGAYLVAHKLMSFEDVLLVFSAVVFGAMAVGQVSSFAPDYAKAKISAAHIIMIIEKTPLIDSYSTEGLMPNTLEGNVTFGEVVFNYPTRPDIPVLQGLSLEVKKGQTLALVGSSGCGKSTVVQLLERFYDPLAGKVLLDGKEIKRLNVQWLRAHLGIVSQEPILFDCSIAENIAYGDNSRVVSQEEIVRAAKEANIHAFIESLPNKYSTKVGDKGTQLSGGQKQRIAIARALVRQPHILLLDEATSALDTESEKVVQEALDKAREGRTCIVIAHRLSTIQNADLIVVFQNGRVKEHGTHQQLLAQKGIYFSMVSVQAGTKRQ

Activity [1]: is not an inhibitor [-]
Activity [2]: is not a substrate [-]
Activity [3]: is not a substrate [-]
Structure (SMILES): NC(=O)N1c2ccccc2C=Cc2ccccc21 [CARBAMAZEPINE]
